Consider eight molecules from patent US20120053165A1, “Novel Phenyl Imidazoles and Phenyl Triazoles As Gamma-Secretase Modulators” (Pfizer Inc., priority 2009, published 2012).

Read-outs that look alike come from different tables or passages of the source.

The subject of the assay is production of amyloid beta protein Aβ(1-42) in human WT-APP overexpressing CHO cells.
Where [1] appears, read: read-out: Aβ 42 IC50, Geometric mean of 2-8 determinations, human WT-APP overexpressing CHO cells.
Setting [2] is: Homo sapiens, CHO, read-out: Aβ 42 IC50, Geometric mean of 2-8 determinations, human WT-APP overexpressing CHO cells.
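Note: Aβ(1-42) released into conditioned medium captured by ELISA after roughly 24 h compound exposure, vehicle and inhibitor controls defining maximal and minimal inhibition.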

Experimental: Cell-Based γ-Secretase Assay with ELISA Readout
The ability of compounds to modulate production of amyloid beta protein Aβ(1-42) was determined using human WT-APP overexpressing CHO cells. Cells were plated at 22,000 cells/100 μL well in 96 well tissue culture treated, clear plates (Falcon) in DMEM/F12 based medium and incubated for 24 hours at 37° C. […] Compounds were added in fresh medium to achieve 1% final DMSO. Appropriate vehicle and inhibitor controls were added to obtain maximum and minimum inhibition values for the assay before the plates were incubated for about 24 hours at 37° C.
Coating of ELISA assay plates was initiated by addition of 50 μL/well of an in house Aβ(1-42) specific antibody at (4 μg/mL) in 0.1 M NaHCO3 (pH 9.0) into black 384-well Maxisorp® plates (Nunc) and incubated overnight at 4° C. […] Ambient temperature incubation was allowed to proceed for a minimum of two hours before washing 2×100 μL with Wash Buffer (Dulbecco's PBS, 0.05% Tween 20). Assay Buffer (Dulbecco's PBS, 1.0% BSA (Sigma A7030), 0.05% Tween 20) 20 μL/well is then added.
After incubation overnight at 37° C., 5% CO2, 40 μL (in duplicate) of experimental conditioned media are transferred into wells of the blocked ELISA plates containing the capture antibody, followed by overnight incubation at 4° C.
After overnight incubation of the ELISA assay plates at 4° C., unbound Aβ peptides were removed thorough (4×100 μL) washes with Wash Buffer.

For `COc1cc(C(=O)NC2(Cc3cccc(Cl)c3)CC2)ccc1-n1cnc(C)c1` [Example 92, N-[1-(3-chlorobenzyl)cyclopropyl]-3-methoxy-4-(4-methyl-1H-imidazol-1-yl) benzamide], the concentration for half-maximal inhibition (IC50) under setting [1] was determined as 595 nM.
Turning to `COc1cc(C(=O)NCc2c(C)cccc2NS(C)(=O)=O)ccc1-n1cnc(C)c1` [Example 102, 3-methoxy-4-(4-methyl-1H-imidazol-1-yl)-N-{2-methyl-6-[(methyl-sulfonyl)amino]benzyl} benzamide], the half-inhibitory concentration (IC50) under setting [1] came out at 689 nM.
`COc1cc(C(=O)NCc2cccc(OC(F)(F)F)c2)ccc1-n1cnc(C)c1` [Example 55, 3-methoxy-4-(4-methyl-1H-imidazol-1-yl)-N-[3-(trifluoromethoxy)benzyl]benzamide]: the concentration for half-maximal inhibition (IC50) under setting [2] was 332 nM.
The same measure, in the same setting: the result for `COc1cc(C(=O)NCc2csc3ccc(Cl)cc23)ccc1-n1cnc(C)c1` [Example 9, N-[(5-chloro-1-benzothien-3-yl)methyl]-3-methoxy-4-(4-methyl-1H-imidazol-1-yl)benzamide] reads 158 nM.
In the case of `CCOc1ccccc1CCNC(=O)c1ccc(-n2cnc(C)c2)c(OC)c1` [Example 104, N-[2-(2-ethoxyphenyl)ethyl]-3-methoxy-4-(4-methyl-1H-imidazol-1-yl)benzamide], under “Homo sapiens, CHO, read-out: Aβ 42 IC50”, the IC50 worked out at 698 nM.
As to `COc1cc(C(=O)NC(C)(C)c2ccc(F)c(F)c2)ccc1-n1cnc(C)c1` [Example 26, N-[1-(3,4-difluoro-phenyl)-1-methylethyl]-3-methoxy-4-(4-methyl-1H-imidazol-1-yl) benzamide], under setting [1], the IC50 turned out to be 787 nM.
For `COc1cc(C(=O)NCCc2nc3ccc(Cl)cc3o2)ccc1-n1cnc(C)c1` [Example 38, N-[2-(6-chloro-1,3-benzoxazol-2-yl)ethyl]-3-methoxy-4-(4-methyl-1H-imidazol-1-yl) benzamide], under setting [1], the IC50 worked out at 354 nM.
As for `COc1cc(C(=O)Nc2[nH]nc(C)c2-c2cccc(C(F)(F)F)c2)ccc1-n1cnc(C)c1` [Example 10, 3-methoxy-4-(4-methyl-1H-imidazol-1-yl)-N-{3-methyl-4-[3-(trifluoro-methyl)phenyl]-1H-pyrazol-5-yl}benzamide], under setting [2], the IC50 worked out at 245 nM.

As a reminder, the IC50 is the concentration that gives 50% inhibition.
